Assay results taken from patent US10300107B2, “Compositions and methods for CaMKII inhibitors and uses thereof” (THE REGENTS OF THE UNIVERSITY OF COLORADO, priority 2007, dated 2019).
Values joined by “and” are separate entries in the source; they are usually repeats but may differ in a detail not shown here. Equal values may be shown once. “Also recorded” adds a separate entry of the source. Values belong to the substance of their own block, whether it stands above or below them. Where no end group is shown, it is not given here.

Assays:
[1] = target: T1, CaMKII (Homo sapiens, UniProt Q9UQM7); test: Autonomous CaMKII activity (pre-autophosphorylated CaMKII); assay type: biochemical
T1 construct: made in house; host or cells: baculovirus/Sf9 cells
Procedure: (§1) Stimulated CaMKII activity was assessed using purified CaMKII, [γ^32P]ATP, and the CaMKII substrate, syntide2. Reaction was initiated by addition of calcium and calmodulin. To measure autonomous activity, CaMKII was pre-autophosphorylated by incubation with calcium and calmodulin, which was then chelated by addition of EDTA prior to adding the kinase to syntide2 and [γ^32P]ATP. […] To measure self-association, purified CaMKII was incubated for five minutes with 1mM ADP, calcium and calmodulin, and the appropriate inhibitor. The reaction mixture was then centrifuged to pellet the self-associated kinase. The supernatant (S) was removed and saved and the pellet (P) was resuspended. Both were then resolved by SDS-PAGE and western-blotted for CaMKII. Self-associated kinase is found in the pellet.

[2] = test system: CaMKII; assay type: biochemical
Procedure: CaMKII activity assays. Standard CaMKII assays were done for 1 min at 30° C. previously described, with 20 nM CaMKII (subunit, not holoenzyme concentration), 50 mM PIPES pH 7.2, 0.1 mg/ml BSA, 10 mM MgCl2, 100 μM [γ-^32P] ATP (˜1 Ci/mmol), 1 mM CaCl2, 1-2 μM CaM, and 30-60 μM AC2 peptide (or syntide2). The reactions were spotted onto Whatman P81 phosphocellulose paper rectangles (˜2×2.5 cm). To remove free radioactivity, the paper rectangles were rinsed and washed for 30 min under agitation in 0.5% phosphoric acid or water. […] Radioactivity of the bound peptides was quantified in a Beckman 6000TA scintillation counter by the Cherenkov method. Any changes of the standard protocol were done as indicated. For assays of the GFP-CaMKIIα mutants, kinase amounts were normalized by GFP fluorescence in the extract, and total protein was adjusted with Cos-7 extracts.

[3] = target: CaMKI (Homo sapiens, UniProt Q14012); test: CaMKI activity / inhibition; assay type: biochemical
From the text: For curve fit, the Hill coefficient was set as 1.

[4] = test system: CaMKII; test: Kinase panel (kinase profiling service): CaMKII; assay type: biochemical
Procedure: (§3) Kinase panels. A panel of different kinases was tested utilizing a kinase profiling service (Upstate Biotechnology).

[5] = target: T2, CaMKII binding to GST-NR2B-c (Homo sapiens, UniProt Q9UQM7); test: Ca2+/CaM-induced CaMKII binding to immobilized GST-NR2B-c; conditions: Western blot of eluted CaMKII
T2 construct: made in house; host or cells: CaMKII: baculovirus/Sf9; GST-NR2B-c and CaM: bacteria
Procedure: CaMKII binding to NR2B-c was assessed as previously described. Briefly, GST-NR2B-c was immobilized on anti-GST coated microtiter plates, then overlaid with 100 nM CaMKII in presence of Ca^2+/CaM and 1 or 5 μM of various CN peptides. After extensive wash, protein was eluted from the plates by boiling in SDS-loading buffer. Eluted CaMKII was detected by Western-blot as described above.

[6] = target: T1, CaMKII; test: CaMKII self-association in vitro; assay type: biochemical
Procedure: as §1

[7] = test system: Langerhans' islets; test: Glucose-induced insulin secretion from isolated Langerhans' islets; assay type: cell-based, rat; conditions: 11 mM glucose; EGTA 0.5 mM, KN93 10 μM, antCN27 5 μM, tatCN21 5 μM
Procedure: Insulin secretion. Langerhans' islets acutely isolated from adult male Wistar rats (Harlan) were obtained. […] Inhibitors or EGTA were added 30 min before stimulation. Insulin secreted into the medium during 90 min stimulation was measured using an ELISA kit (CrystalChem).

[8] = test system: 10DIV hippocampal neurons; test: NMDA induced cell death; assay type: cell-based; conditions: NMDA plus CNQX 5 minutes, assayed 24 hours after insult
Procedure: Neurons were co-transfected with siRNA or non-targeting RNA (NT) at 8DIV and were assayed at day 10. […] Cells were treated with 300 mM NMDA plus 50 mM CNQX (an AMPAR inhibitor) for 5 minutes and cell death was assayed 24 hours after insult. […] Increased AMPAR expression is thought to lead to increased cell death. Thus, by inducing cell death with NMDA and an AMPAR inhibitor, the AMPAR component was reduced.

[9] = target: calmodulin (CaM) (Homo sapiens, UniProt P0DP23); test: Binding to calmodulin (slot blot, blot overlay, TA-CaM competition with CBD)
Procedure: TA-labeled CaM represents reduced fluorescence after binding to CaMKII or its CaM binding domain (CBD; −0.05 nM kD for CaM^5; see also FIG. 9G).
Measured was AC2 phosphorylation as described^4. Error bars show s.e.m.

[10] = test system: hippocampal neurons; test: Imaging of neuronal filopodia motility; assay type: cell-based, rat; conditions: 20 min incubation
Procedure: In another example, motility of hippocampal neurons was analyzed. […] Images of GFP expressing hippocampal neurons (5-6 days in vitro) were acquired at 30° C. in 20 s intervals in order to assess motility.
Imaging of neuronal filopodia motility was done similarly as previously described. Hippocampal cultures were prepared from newborn Sprague Dawley rats (Harlan) as previously described, plated onto poly-D-lysine coated glass bottom dishes (MatTek) at a density of ˜2.5×10^6 cells/cm^2 and maintained in Neurobasal A medium with penicillin/streptomycin (50 units/ml), glutamax (2 mM) and B27 supplement (Invitrogen). […] After 5 days in vitro, neurons were transfected with a GFP expression construct (Clonetech) using lipofectamine 2000 (Invitrogen), as described. On the next day neurons were imaged in culture medium on for example, a Zeiss Axiovert 200M systems equipped with a 40× oil immersion objective, Cool Snap HQ CCD camera (Roeper Scientific), Xenon lamp LB-LS/17 (Sutter Instruments) and climate control set to 30° C. and 5% CO2. Fluorescence Images were acquired and analyzed using SlideBook software (Intelligent Imaging Innovations). 16 images were taken in 20 s time intervals, at 100 ms exposure time and bin factor 2. Subtraction image (Δ image) stacks were generated by subtracting one stack (first image deleted) from its duplicate (last image deleted). […]

[11] = target: T1, CaMKII; test: CaMKII auto- and protein-phosphorylation (MAP2, T286, T305; immuno-blot); assay type: biochemical
Procedure: CaMKII auto- and protein-phosphorylation. 10 nM MAP2 (˜140 nM phosphorylation sites) was used instead of substrate peptide, and reaction times were 5 min, unless indicated otherwise. CaMKII concentration was 100 nM subunits (=8.3 nM holoenzymes). Auto- and MAP2-phosphorylation were assessed by Immuno-blot analysis previously derived (Bayer et al., 2002, incorporated herein by reference) with phospho-T286- or -T305-specific antibodies (1:500; PhosphoSolutions) and an anti-phospho-Thr antibody (1:500; Zymed), respectively. Total CaMKIIα was detected with CBα2 antibody (1:2000; GIBCO). Protein were separated on 10% poly-acrylamid SDS Gels, and electro-blotted onto “Protran” 0.2 μm pore nitrocelluse filters (e.g. Schleicher & Schull) or onto PVDF filters (e.g. Perkin Elmer). Alternatively, for quantitative analyses, a vacuum-driven slot-blot manifold (e.g. Schleicher & Schull) was used for transfer onto PVDF membranes. PVDF membranes were air-dried for 15 min, then wetted in Methanol. Blots were blocked in 5% milk in TBS-T (Tris-buffered saline pH 7.6 with 0.1% Tween-20). Antibodies were incubated for 45-60 min at room temperature in 2.5% milk in TBS-T; for the anti-phospho-T305 antibody, 2.5% BSA was used instead. After secondary antibody incubation (anti-mouse or anti-rabbit horseradish peroxidase conjugate; Amersham; 1:4000), detection was done using the “Western Lightning” system (Perkin Elmer) and exposure to “Hyperfilm” (Amersham). For quantitative analysis, chemoluminescence was captured using a ChemiImager 4400 imaging system (Alpha Innotek) instead of film. Only non-saturated images were analyzed, using AlphaEase software.

[12] = test system: hippocampal and cortical cultures; test: Glutamate induced neuronal cell death measured by LDH release; assay type: cell-based, rat
Procedure: In another example, neuronal cell death is measured by LDH release. In this exemplary method, glutamate was used to induce neuronal cell death, A portion of CaMKIIN was fused to a cell penetrating molecule to generate tatCN21a construct.

[13] = target: CaMKIV (Homo sapiens, UniProt Q16566); test: Kinase panel: CaMKIV; assay type: biochemical; conditions: 5 μM
Procedure: as §3

[14] = target: protein kinase A (PKA) (Homo sapiens, UniProt P17612); test: Kinase panel for CN19o: PKA; assay type: biochemical; conditions: 5 μM
Procedure: (§2) Additionally, CN19o was tested for effects on a panel of other kinases (see for example FIG. 25B). This panel included other CaM kinase family members (CaMKIV, DAPK1, AMPK) and other basophilic multifunctional kinases (protein kinase A (PKA) and protein kinase C (PKC)). […] Thus, CN19o (SEQ ID NO: 24) inhibits CaMKII both with remarkable potency and high selectivity.

[15] = target: PKC (Homo sapiens, UniProt P17252); test: Kinase panel: PKC; assay type: biochemical; conditions: 5 μM
Procedure: as §3

[16] = target: DAPK1 (Homo sapiens, UniProt P53355); test: Kinase panel for CN19o: DAPK1; assay type: biochemical; conditions: 5 μM
Procedure: as §2

[17] = test system: AMPK; test: Kinase panel for CN19o: AMPK; assay type: biochemical; conditions: 5 μM
Procedure: as §2

CaMKI, sequence (Q14012 whole entry, species assumed): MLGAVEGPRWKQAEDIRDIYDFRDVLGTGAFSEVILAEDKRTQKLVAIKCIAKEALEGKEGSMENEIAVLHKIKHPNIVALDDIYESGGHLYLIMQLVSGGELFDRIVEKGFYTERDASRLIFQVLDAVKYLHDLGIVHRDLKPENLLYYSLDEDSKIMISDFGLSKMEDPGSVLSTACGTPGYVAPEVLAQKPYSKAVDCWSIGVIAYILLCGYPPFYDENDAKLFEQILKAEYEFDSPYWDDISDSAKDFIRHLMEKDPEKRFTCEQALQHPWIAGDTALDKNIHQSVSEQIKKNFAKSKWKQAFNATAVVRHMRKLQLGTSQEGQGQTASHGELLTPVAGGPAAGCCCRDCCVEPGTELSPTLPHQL
DAPK1, sequence (P53355 whole entry, species assumed): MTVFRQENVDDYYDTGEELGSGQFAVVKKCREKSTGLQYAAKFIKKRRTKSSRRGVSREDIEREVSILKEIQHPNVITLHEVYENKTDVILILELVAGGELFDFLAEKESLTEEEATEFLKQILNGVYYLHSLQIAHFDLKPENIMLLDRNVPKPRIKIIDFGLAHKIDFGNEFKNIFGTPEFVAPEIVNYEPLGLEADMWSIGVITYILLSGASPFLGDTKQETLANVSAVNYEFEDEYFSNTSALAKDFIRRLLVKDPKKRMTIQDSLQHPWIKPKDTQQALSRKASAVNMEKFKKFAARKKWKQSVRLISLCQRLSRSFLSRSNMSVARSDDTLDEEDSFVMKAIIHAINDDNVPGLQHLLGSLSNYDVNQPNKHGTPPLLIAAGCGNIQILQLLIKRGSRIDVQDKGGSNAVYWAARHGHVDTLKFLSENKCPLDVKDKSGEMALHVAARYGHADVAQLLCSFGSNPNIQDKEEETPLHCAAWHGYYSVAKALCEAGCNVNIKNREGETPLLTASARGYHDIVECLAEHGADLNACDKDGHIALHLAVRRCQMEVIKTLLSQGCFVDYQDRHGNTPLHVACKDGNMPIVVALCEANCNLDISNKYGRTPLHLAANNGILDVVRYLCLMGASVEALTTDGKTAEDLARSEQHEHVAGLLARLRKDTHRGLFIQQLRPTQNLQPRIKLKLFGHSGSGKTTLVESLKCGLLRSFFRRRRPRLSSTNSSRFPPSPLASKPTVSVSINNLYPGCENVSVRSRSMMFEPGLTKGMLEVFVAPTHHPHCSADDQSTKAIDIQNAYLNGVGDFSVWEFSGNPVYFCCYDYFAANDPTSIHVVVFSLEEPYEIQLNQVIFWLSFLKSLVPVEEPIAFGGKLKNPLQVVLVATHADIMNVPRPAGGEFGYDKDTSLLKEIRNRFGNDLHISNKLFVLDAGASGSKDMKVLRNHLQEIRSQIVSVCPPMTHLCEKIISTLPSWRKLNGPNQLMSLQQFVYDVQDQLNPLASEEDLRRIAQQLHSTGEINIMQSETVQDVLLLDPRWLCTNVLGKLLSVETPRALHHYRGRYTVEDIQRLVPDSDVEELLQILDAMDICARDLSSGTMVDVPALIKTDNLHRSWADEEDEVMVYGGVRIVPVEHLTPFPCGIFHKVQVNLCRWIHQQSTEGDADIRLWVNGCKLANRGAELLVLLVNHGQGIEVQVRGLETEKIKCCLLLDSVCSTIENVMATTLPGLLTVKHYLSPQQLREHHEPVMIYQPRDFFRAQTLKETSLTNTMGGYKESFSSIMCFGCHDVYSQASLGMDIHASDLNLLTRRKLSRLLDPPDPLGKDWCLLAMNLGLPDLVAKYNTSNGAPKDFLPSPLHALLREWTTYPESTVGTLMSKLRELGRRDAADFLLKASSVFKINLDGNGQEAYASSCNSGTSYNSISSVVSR

Substance: tatCN21: CN21 fused to the cell penetrating tat sequence (YGRKKRRQRRRKRPPKLGQIGRSKRVVIEDDR)
autonomous CaMKII activity [1]: inhibits autonomy; also recorded: blocks not only stimulated but also autonomous CaMKII activity
CaMKII-mediated AC2/AC3 phosphorylation at varying CaM concentrations ([2]; 1 μM peptide): strongly inhibited
calcium and calmodulin stimulated CaMKII activity ([2]; substrate syntide2): inhibit calcium and calmodulin stimulated CaMKII activity
effect on CaMKI activity [3]: dramatically reduces CaMKI activity
CaMKII activity in kinase panel ([4]; 1 μM peptide): completely blocked CaMKII activity
CaMKII activity in kinase panel ([4]; 5 μM peptide): blocked CaMKII activity
CaMKII binding to immobilized GST-NR2B-c / NR2B [5]: efficiently blocked
CaMKII binding to immobilized GST-NR2B-c / NR2B ([5]; listed as TatCN21): inhibited binding
CaMKII self-association in vitro [6]: inhibited
glucose-induced insulin secretion [7]: inhibited
NMDA induced cell death [8]: reduces NMDA-induced cell death
competition with CBD for binding of TA-labeled CaM [9]: did not show any competition and not
motility in hippocampal neurons [10]: inhibits motility in hippocampal neurons
MAP2 (substrate) phosphorylation by CaMKII ([11]; 1-5 μM peptide): blocked MAP2
CaMKII T286 auto-phosphorylation ([11]; CN peptides 1-5 μM, KN93 10 μM): not T286 phosphorylation
glutamate induced cell death ([12]; 7DIV cortical, added 1-6 hours post insult): inhibits glutamate induced cell death
glutamate induced neuronal cell death ([12]; added 1 h after the insult): protective also when added 1 h after the insult
glutamate induced neuronal cell death ([12]; added 1 h after the insult, listed as tatCN21a): also when added 1h after the insult
glutamate induced neuronal cell death ([12]; present during the insult): reduce by half
glutamate induced neuronal cell death ([12]; present during the insult, listed as tatCN21a): inhibited glutamate induced neuronal cell death

effect on kinase activity of CaMKIV [13]: did not significantly affect
IC50 ([2]; CaMKII concentration lowered to 0.1 nM, read-out: IC50 of CaMKII inhibition): ~0.75 nM and 0.75 nM and < 1 nM
IC50 [3]: ~38000 nM
effect on kinase activity of CaMKI ([3]; 5 μM): did not significantly affect
selectivity for CaMKII vs CaMKI ([3]; ratio of IC50 values): about 50,000 fold
effect on kinase activity of PKA [14]: did not significantly affect
effect on kinase activity of PKC [15]: did not significantly affect
effect on kinase activity of DAPK1 [16]: did not significantly affect
effect on kinase activity of AMPK [17]: did not significantly affect
Substance: KRAPKLGQIGRQKAVDIED [CN19o]
effect on CaMKII activity ([2]; 5 nM): blocked CaMKII activity nearly completely
effect of further mutation on potency of CaMKII inhibition ([2]; CN19a2v background): increased potency even further
